# Assay results published in patent US11304913B2, “Analgesic compositions” (Vapogenix, Inc., priority 2013, dated 2022).
# Assay type: physicochemical
# Experimental: A time-dependent evaporation study was performed with a composition of the invention (FIG. 3). Isoflurane alone was used as the control in the experiment.
smiles,measurement,setting,value
FC(F)OC(Cl)C(F)(F)F (centres unmarked) [isoflurane],original weight remaining,0.75 h,86.8%
same,lost due to evaporation,after 45 minutes of experiment,13.2%
